Earlier results in patent US10478472B2, “Combination of tolerogenic peptides and TFG-B for use in the induction and maintenance of oral tolerance in young mammals” (NESTEC S.A., priority 2015, dated 2019).

Settings: identified as part of a longer peptide sequence in WO2000/42863

In the case of “EVDDEALEK (listed as Bos taurus) [SEQ ID No. 8, BLG peptide, position 143-151]”, the “inducers of oral tolerance” value is listed as “inducers of oral tolerance”.

In the case of “IDALNENK (listed as Bos taurus) [SEQ ID No. 6, BLG peptide, position 100-107]”, the “inducers of oral tolerance” value is given as “inducers of oral tolerance”.

In the case of “VLDTDY (listed as Bos taurus) [SEQ ID No. 7, BLG peptide, position 110-115]”, the “inducers of oral tolerance” value is given as “inducers of oral tolerance”.
